Experimental data from patent US20260098026A1, “M4 ACTIVATORS/MODULATORS AND USES THEREOF” (Cerevel Therapeutics, LLC, priority 2022, published 2026).

Assays:
Assay type in all cases: cell-based
[1] = target: T1, M1 muscarinic acetylcholine receptor (mAChR) (Homo sapiens, UniProt P11229); test: FLIPR calcium assay (Fluo 8), M1-overexpressing CHO-K1 cells
T1 construct: expressed in transfected cells; host or cells: CHO-K1
T1 sequence (P11229 1-460): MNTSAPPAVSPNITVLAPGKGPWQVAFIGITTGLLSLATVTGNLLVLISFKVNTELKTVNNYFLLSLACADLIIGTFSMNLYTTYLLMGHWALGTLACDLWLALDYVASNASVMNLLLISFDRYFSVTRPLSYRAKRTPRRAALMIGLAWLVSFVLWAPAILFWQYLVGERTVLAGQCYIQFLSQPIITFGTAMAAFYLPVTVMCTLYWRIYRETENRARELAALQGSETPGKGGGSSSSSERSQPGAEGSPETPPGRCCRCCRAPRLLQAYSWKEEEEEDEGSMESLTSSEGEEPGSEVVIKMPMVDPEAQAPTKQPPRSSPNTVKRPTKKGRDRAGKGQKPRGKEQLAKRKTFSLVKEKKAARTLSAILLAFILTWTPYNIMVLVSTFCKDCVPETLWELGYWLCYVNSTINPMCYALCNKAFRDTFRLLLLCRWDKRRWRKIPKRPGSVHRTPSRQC
Procedure: (§1) Stimulation of a Gq-coupled G-protein coupled receptors (GPCRs), result in an efflux of calcium from the endoplasmic reticulum to the cytoplasm (Berridge, 1993), thus rendering this assay appropriate for the assessment of M1, M3 and M5 receptors. CHO-K1 cells overexpressing the M1, M3, or M5 muscarinic acetylcholine receptor (mAChR) were dispensed at 15,000 cells per well in 30 μl volume to 384-well plates and grown overnight at 37° C. in a 5% CO2 atmosphere. Fluo-8 Solution, 10 μl per well, was added to each well and incubated for 30 minutes at 37° C. in a 5% CO2 atmosphere. Compounds diluted in Hanks' balanced salt solution (HBSS) were transferred to the cell assay plate at 10 μl per well, and then read on a FLIPR instrument. EC50 and Emax figures were calculated from the resulting data for each receptor subtype.

[2] = target: T2, M3 muscarinic acetylcholine receptor (mAChR) (Homo sapiens, UniProt P20309); test: FLIPR calcium assay (Fluo 8), M3-overexpressing CHO-K1 cells
T2 construct: expressed in transfected cells; host or cells: CHO-K1
T2 sequence (P20309 whole entry): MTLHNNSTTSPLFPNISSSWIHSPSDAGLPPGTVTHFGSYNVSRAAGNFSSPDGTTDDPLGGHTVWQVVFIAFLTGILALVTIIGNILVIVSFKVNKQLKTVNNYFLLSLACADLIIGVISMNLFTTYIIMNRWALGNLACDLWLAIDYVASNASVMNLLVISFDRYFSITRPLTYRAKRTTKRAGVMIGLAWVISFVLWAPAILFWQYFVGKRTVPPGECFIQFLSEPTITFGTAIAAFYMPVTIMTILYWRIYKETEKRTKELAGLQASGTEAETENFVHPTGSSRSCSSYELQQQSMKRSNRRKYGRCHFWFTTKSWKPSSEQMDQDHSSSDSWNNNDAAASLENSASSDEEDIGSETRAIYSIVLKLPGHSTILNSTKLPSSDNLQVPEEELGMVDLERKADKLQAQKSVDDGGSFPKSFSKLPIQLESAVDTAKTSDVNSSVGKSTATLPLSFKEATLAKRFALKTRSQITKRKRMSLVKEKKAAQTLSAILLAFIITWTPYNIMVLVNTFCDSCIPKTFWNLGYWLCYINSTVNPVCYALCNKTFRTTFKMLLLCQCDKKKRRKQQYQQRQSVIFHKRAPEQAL
Summary of the method: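 CHO-K1 cells overexpressing each human receptor seeded at 15,000 per well, grown overnight at 37° C., 5% CO2, then loaded with Fluo-8 for 30 min. Compounds in HBSS added and calcium response read on FLIPR; EC50 and Emax calculated per subtype.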

M4 mAChR = target: T3, M4 mAChR (Homo sapiens, UniProt P08173); test: cAMP TR-FRET assay with forskolin, M4-overexpressing CHO-K1 cells
T3 construct: expressed in transfected cells; host or cells: CHO-K1
T3 sequence (P08173 1-479): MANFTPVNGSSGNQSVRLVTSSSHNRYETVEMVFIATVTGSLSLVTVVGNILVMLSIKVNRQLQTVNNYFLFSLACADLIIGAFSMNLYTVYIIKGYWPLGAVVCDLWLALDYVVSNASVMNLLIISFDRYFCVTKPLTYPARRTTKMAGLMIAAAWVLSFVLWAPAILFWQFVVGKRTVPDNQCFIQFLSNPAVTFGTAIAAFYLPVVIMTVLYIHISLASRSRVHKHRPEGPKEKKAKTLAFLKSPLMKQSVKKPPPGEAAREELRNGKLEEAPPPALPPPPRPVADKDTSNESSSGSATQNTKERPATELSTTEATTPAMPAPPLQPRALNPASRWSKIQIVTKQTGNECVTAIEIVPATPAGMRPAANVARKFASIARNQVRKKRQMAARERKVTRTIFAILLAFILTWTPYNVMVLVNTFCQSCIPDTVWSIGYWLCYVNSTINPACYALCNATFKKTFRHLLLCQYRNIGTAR
Summary of the method: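 CHO-K1 cells overexpressing the receptor were stimulated with forskolin to raise cAMP, so that Gi-mediated agonist decreases could be measured. cAMP was quantified by TR-FRET competition between cellular cAMP and labelled donor for anti-cAMP antibody, giving potency and efficacy.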

[3] = target: T4, M5 muscarinic acetylcholine receptor (mAChR) (Homo sapiens, UniProt P08912); test: FLIPR calcium assay (Fluo 8), M5-overexpressing CHO-K1 cells
T4 construct: expressed in transfected cells; host or cells: CHO-K1
T4 sequence (P08912 1-532): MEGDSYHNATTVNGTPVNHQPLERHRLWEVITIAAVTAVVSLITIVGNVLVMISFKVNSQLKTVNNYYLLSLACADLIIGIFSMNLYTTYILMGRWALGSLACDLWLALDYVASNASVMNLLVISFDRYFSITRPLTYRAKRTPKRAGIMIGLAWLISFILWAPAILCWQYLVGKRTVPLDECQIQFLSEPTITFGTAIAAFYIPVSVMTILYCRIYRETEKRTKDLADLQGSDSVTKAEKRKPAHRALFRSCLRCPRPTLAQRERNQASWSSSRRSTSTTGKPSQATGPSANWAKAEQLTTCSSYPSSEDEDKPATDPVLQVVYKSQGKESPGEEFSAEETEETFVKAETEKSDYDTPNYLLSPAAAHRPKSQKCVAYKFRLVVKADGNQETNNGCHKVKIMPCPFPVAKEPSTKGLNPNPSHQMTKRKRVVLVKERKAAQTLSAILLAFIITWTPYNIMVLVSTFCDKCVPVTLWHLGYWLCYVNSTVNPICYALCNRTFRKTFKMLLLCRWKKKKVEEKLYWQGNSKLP
Procedure: as §1

Row | SMILES | Emax ([1]; FLIPR) [%] | EC50 ([2]; FLIPR) [µM] | Emax (M4 mAChR; cAMP assay) [%] | Emax ([1]; FLIPR calcium) [%] | EC50 ([2]; FLIPR calcium) [µM] | Emax (M4 mAChR; cAMP TR-FRET with forskolin) [%] | Emax ([3]; FLIPR calcium) [%] | Emax ([3]; FLIPR) [%]
1 | CCOC(=O)N1CC2(CC[C@@H](N3CCN(c4cc(F)cnc4N4CCOCC4)CC3)C2)C1 [Compound A289] | 19 to 49.9 | > 10 | 80 to 100 |  |  |  |  | 
2 | CCOC(=O)N1CC2(CC[C@@H](N3CCN(c4cc(F)cnc4-c4cnoc4C)CC3)C2)C1 [Compound A113] |  |  |  | 19 to 49.9 | > 10 | 80 to 100 |  | 
3 | CCOC(=O)N1CC2(CC[C@@H](N3CCN(c4cc(F)cnc4-c4conc4C)CC3)C2)C1 [Compound A140] |  |  |  | 19 to 49.9 | > 10 | 80 to 100 |  | 
4 | CCOC(=O)N1CC2(CC[C@@H](N3CCN(c4cc(F)cnc4-c4cnc(F)nc4)CC3)C2)C1 [Compound A184] | 19 to 49.9 | > 10 | 80 to 100 |  |  |  |  | 
5 | CCOC(=O)N1CC2(CC[C@@H](N3CCN(c4cc(F)cnc4-c4ccnn4CC)CC3)C2)C1 [Compound A93] |  |  |  | 19 to 49.9 | > 10 | 80 to 100 |  | 
6 | CCOC(=O)N1CC2(CC[C@@H](N3CCN(c4cc(F)cnc4-c4cnc(OC)nc4)CC3)C2)C1 [Compound A146] |  |  |  | 19 to 49.9 | > 10 | 80 to 100 |  | 
7 | CCOC(=O)N1CC2(CC[C@@H](N3CCN(c4cc(F)cnc4-c4cccnc4OCC)CC3)C2)C1 [Compound A49] |  |  |  | 50 to 79.9 | > 10 | 80 to 100 |  | 
8 | CCOC(=O)N1CC2(CC[C@@H](N3CCN(c4cccnc4-c4cncc(OC)c4)CC3)C2)C1 [Compound A1, ethyl (6R)-6-[4-[2-(5-methoxy-3-pyridyl)-3-pyridyl]piperazin-1-yl]-2-azaspiro[3.4]octane-2-carboxylate] |  |  |  |  | > 10 | 80 to 100 | 19 to 49.9 | 
9 | CCOC(=O)N1CC2(CC[C@@H](N3CCN(c4cc(F)cnc4-c4ccc(F)nc4)CC3)C2)C1 [Compound A2, ethyl (6R)-6-[4-[5-fluoro-2-(6-fluoro-3-pyridyl)-3-pyridyl]piperazin-1-yl]-2-azaspiro[3.4]octane-2-carboxylate] |  |  |  | 19 to 49.9 | > 10 | 80 to 100 |  | 
10 | CCOC(=O)N1CC2(CC[C@@H](N3CCN(c4cc(F)cnc4-c4cn/c(=N\C)[nH]c4)CC3)C2)C1 [Compound A70] |  |  |  | 19 to 49.9 | > 10 | 80 to 100 |  | 
11 | CCOC(=O)N1CC2(CC[C@@H](N3CCN(c4cccnc4N4CCCC4)CC3)C2)C1 [Compound A3, ethyl (6R)-6-[4-(2-pyrrolidin-1-yl-3-pyridyl)piperazin-1-yl]-2-azaspiro[3.4]octane-2-carboxylate] |  |  |  | 19 to 49.9 | > 10 |  |  | 
12 | CCOC(=O)N1CC2(CC[C@@H](N3CCN(c4cc(F)cnc4-c4cnc5ccnn5c4)CC3)C2)C1 [Compound A100] |  |  |  | 19 to 49.9 | > 10 | 80 to 100 |  | 
13 | CCOC(=O)N1CC2(CC[C@@H](N3CCN(c4cc(F)cnc4-c4ccc(C(=O)NC)cc4)CC3)C2)C1 [Compound A103] |  |  |  | 19 to 49.9 | > 10 | 80 to 100 |  | 
14 | CCOC(=O)N1CC2(CC[C@@H](N3CCN(c4cc(F)cnc4-c4ccc(NC(C)=O)nc4)CC3)C2)C1 [Compound A75] |  |  |  | 19 to 49.9 | > 10 | 80 to 100 |  | 
15 | CCOC(=O)N1CC2(CC[C@@H](N3CCN(c4cc(F)cnc4-c4ccncc4)CC3)C2)C1 [Compound A53] |  |  |  | 19 to 49.9 | > 10 | 80 to 100 |  | 
16 | CCOC(=O)N1CC2(CC[C@@H](N3CCN(c4cc(F)cnc4-c4cnc(C)nc4)CC3)C2)C1 [Compound A185] | 19 to 49.9 | > 10 | 80 to 100 |  |  |  |  | 
17 | CCOC(=O)N1CC2(CC[C@@H](N3CCN(c4cc(F)cnc4-c4cncs4)CC3)C2)C1 [Compound A59] |  |  |  | 19 to 49.9 | > 10 | 80 to 100 |  | 
18 | CCOC(=O)N1CC2(CC[C@@H](N3CCN(c4cc(F)cnc4-c4cnc(OC(C)C)nc4)CC3)C2)C1 [Compound A158] | 19 to 49.9 | > 10 | 80 to 100 |  |  |  |  | 
19 | CCOC(=O)N1CC2(CC[C@@H](N3CCN(c4cc(F)cnc4-c4cnc(NC(C)C)nc4)CC3)C2)C1 [Compound A87] |  |  |  | 19 to 49.9 | > 10 | 80 to 100 |  | 
20 | CCOC(=O)N1CC2(CC[C@@H](N3CCN(c4cc(F)cnc4-c4cnn(CC(C)C)c4)CC3)C2)C1 [Compound A71] |  |  |  |  | > 10 | 80 to 100 | 19 to 49.9 | 
21 | CCOC(=O)N1CC2(CC[C@@H](N3CCN(c4cc(F)cnc4-c4cncc(O)c4)CC3)C2)C1 [Compound A82] |  |  |  | 19 to 49.9 | > 10 | 80 to 100 |  | 
22 | CCOC(=O)N1CC2(CC[C@@H](N3CCN(c4cc(F)cnc4-c4ccc(CO)o4)CC3)C2)C1 [Compound A91] |  |  |  |  | > 10 | 80 to 100 | 19 to 49.9 | 
23 | CCOC(=O)N1CC2(CC[C@@H](N3CCN(c4cc(F)cnc4-c4cnc5c(c4)ncn5C)CC3)C2)C1 [Compound A51] |  |  |  | 19 to 49.9 | > 10 | 80 to 100 |  | 
24 | CCOC(=O)N1CC2(CC[C@@H](N3CCN(c4cc(F)cnc4-c4ccccc4O)CC3)C2)C1 [Compound A104] |  |  |  | 19 to 49.9 | > 10 | 80 to 100 |  | 
25 | CCOC(=O)N1CC2(CC[C@@H](N3CCN(c4cc(F)cnc4-c4ccnn4C)CC3)C2)C1 [Compound A67] |  |  |  | 19 to 49.9 | > 10 | 80 to 100 |  | 
26 | CCOC(=O)N1CC2(CC[C@@H](N3CCN(c4cc(F)cnc4-c4cnc(OC)c(F)c4)CC3)C2)C1 [Compound A139] |  |  |  | < 19 | > 10 | 80 to 100 |  | 
27 | CCOC(=O)N1CC2(CC[C@@H](N3CCN(c4cc(F)cnc4-c4cnc(O)c(C)c4)CC3)C2)C1 [Compound A166] |  | > 10 | 80 to 100 |  |  |  |  | 19 to 49.9
